{"source": "patent US7326721B2", "about": "(Hypnion, Inc., priority 2003, dated 2008)", "key": {"[1]": {"biological_target": "GABA A, BDZ, alpha 1 site (Homo sapiens, UniProt P14867+P18507)", "experiment": "Table 12 panel: GABA A, BDZ", "conditions": "1.0E−6, average N=2, read-out: percentage inhibition of specific binding", "from_the_text": "(§1) The percentage inhibition (average; N=2) for these receptors is shown below in Table 12.\n(§2) Values in Table 12 are expressed as percentage inhibition of specific binding, and these values represent the average of replicate tubes at each of the concentrations tested."}, "Angiotensin II, AT1 (h)": {"biological_target": "Angiotensin II, AT1 (h) (Homo sapiens, UniProt P30556)", "experiment": "Table 12 panel: Angiotensin II, AT1", "conditions": "1.0E−6, average N=2, read-out: percentage inhibition of specific binding", "from_the_text": "as §1, §2"}, "[2]": {"biological_target": "Glutamate, NMDA, Glycine (Stry-insens Site) (Homo sapiens, UniProt Q05586)", "experiment": "Table 12 panel: Glutamate, NMDA, Glycine", "conditions": "1.0E−6, average N=2, read-out: percentage inhibition of specific binding", "from_the_text": "as §1, §2"}, "[3]": {"biological_target": "Neurokinin, NK2 (NKA) (hr) (Homo sapiens, UniProt P21452)", "experiment": "Table 12 panel: NK2", "conditions": "1.0E−6, average N=2, read-out: percentage inhibition of specific binding", "from_the_text": "as §1, §2"}, "[4]": {"biological_target": "Choline Acetyltransferase (Homo sapiens, UniProt P28329)", "experiment": "Table 12 panel: Choline Acetyltransferase", "type": "biochemical", "conditions": "1.0E−6, average N=2", "from_the_text": "as §1, §2"}, "Thromboxane A2 (h)": {"biological_target": "Thromboxane A2 (h) (Homo sapiens, UniProt P21731)", "experiment": "Table 12 panel: Thromboxane A2", "conditions": "1.0E−6, average N=2, read-out: percentage inhibition of specific binding", "from_the_text": "as §1, §2"}, "Histamine, H2": {"biological_target": "Histamine, H2 (Homo sapiens, UniProt P25021)", "sequence (P25021 whole entry)": "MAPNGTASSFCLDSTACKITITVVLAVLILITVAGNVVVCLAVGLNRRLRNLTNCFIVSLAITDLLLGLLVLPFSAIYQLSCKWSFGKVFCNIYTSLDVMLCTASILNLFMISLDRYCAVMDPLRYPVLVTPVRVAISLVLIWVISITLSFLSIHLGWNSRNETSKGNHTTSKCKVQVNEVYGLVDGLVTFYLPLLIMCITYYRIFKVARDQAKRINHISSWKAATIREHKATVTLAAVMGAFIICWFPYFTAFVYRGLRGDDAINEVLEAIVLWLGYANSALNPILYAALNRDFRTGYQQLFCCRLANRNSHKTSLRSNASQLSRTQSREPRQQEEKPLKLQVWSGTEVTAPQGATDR", "experiment": "Table 12 panel: Histamine, H2", "conditions": "1.0E−6, average N=2, read-out: percentage inhibition of specific binding", "from_the_text": "as §1, §2"}, "Dopamine, Non-selective": {"tested_on": "Dopamine, Non-selective", "experiment": "Table 12 panel: Dopamine, Non-selective", "type": "binding", "conditions": "1.0E−6, average N=2", "from_the_text": "as §1, §2"}, "[5]": {"biological_target": "Norepinephrine Transporter (Homo sapiens, UniProt P23975)", "sequence (P23975 whole entry, species assumed)": "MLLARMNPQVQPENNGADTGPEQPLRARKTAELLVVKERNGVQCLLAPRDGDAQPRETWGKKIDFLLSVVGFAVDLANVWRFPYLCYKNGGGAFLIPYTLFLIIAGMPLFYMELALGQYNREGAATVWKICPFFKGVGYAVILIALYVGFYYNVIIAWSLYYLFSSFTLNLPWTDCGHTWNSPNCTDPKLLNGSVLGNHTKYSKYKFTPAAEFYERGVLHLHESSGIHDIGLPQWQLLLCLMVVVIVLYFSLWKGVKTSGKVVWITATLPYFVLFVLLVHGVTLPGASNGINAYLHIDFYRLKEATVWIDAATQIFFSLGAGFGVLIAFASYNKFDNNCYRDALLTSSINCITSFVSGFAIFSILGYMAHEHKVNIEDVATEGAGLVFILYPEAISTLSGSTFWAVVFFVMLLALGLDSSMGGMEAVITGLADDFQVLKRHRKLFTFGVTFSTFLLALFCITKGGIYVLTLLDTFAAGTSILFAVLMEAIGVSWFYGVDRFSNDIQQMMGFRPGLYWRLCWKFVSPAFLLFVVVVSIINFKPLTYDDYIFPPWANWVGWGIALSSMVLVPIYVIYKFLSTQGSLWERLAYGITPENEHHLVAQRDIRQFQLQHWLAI", "experiment": "Table 12 panel: Norepinephrine Transporter", "conditions": "1.0E−6, average N=2, read-out: percentage inhibition of specific binding", "from_the_text": "as §1, §2"}, "[6]": {"tested_on": "Adrenergic, Beta, Non-selective", "experiment": "Table 12 panel: Adrenergic, Beta", "type": "binding", "conditions": "1.0E−6, average N=2", "from_the_text": "as §1, §2"}, "Estrogen": {"tested_on": "Estrogen", "experiment": "Table 12 panel: Estrogen", "type": "binding", "conditions": "1.0E−6, average N=2", "from_the_text": "as §1, §2"}, "[7]": {"tested_on": "Glutamic Acid Decarboxylase", "experiment": "Table 12 panel: Glutamic Acid Decarboxylase", "type": "biochemical", "conditions": "1.0E−6, average N=2", "from_the_text": "as §1, §2"}, "Sodium, Site 2": {"tested_on": "Sodium, Site 2", "experiment": "Table 12 panel: Sodium, Site 2", "type": "binding", "conditions": "1.0E−6, average N=2", "from_the_text": "as §1, §2"}, "Galanin, Non-Selective": {"tested_on": "Galanin, Non-Selective", "experiment": "Table 12 panel: Galanin", "type": "binding", "conditions": "1.0E−6, average N=2", "from_the_text": "as §1, §2"}, "Endothelin, ET-B (h)": {"biological_target": "Endothelin, ET-B (h) (Homo sapiens, UniProt P24530)", "experiment": "Table 12 panel: Endothelin, ET-B", "conditions": "1.0E−6, average N=2, read-out: percentage inhibition of specific binding", "from_the_text": "as §1, §2"}, "Bradykinin, BK2": {"biological_target": "Bradykinin, BK2 (Homo sapiens, UniProt P30411)", "sequence (P30411 whole entry)": "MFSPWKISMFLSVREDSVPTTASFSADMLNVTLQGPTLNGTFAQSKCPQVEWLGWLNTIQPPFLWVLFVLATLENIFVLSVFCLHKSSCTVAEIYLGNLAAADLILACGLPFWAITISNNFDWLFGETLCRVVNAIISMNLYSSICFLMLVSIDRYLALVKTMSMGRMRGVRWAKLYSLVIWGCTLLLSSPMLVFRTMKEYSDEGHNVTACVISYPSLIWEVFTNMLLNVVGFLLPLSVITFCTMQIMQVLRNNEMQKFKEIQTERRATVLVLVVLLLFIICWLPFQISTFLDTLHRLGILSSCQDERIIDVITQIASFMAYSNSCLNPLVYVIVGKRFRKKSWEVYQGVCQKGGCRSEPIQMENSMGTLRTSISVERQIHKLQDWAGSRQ", "experiment": "Table 12 panel: Bradykinin, BK2", "conditions": "1.0E−6, average N=2, read-out: percentage inhibition of specific binding", "from_the_text": "as §1, §2"}, "Oxytocin": {"biological_target": "Oxytocin (Homo sapiens, UniProt P30559)", "sequence (P30559 whole entry)": "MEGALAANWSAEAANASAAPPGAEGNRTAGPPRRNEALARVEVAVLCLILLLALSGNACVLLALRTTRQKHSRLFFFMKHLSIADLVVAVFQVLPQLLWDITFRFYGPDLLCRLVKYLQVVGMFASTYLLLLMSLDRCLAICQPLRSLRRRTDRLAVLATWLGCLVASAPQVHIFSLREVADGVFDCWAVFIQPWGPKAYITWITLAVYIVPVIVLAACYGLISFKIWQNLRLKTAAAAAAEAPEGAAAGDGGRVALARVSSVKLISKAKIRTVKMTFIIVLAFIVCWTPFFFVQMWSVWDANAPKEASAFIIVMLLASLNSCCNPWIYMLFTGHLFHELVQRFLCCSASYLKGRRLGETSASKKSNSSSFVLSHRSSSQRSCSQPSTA", "experiment": "Table 12 panel: Oxytocin", "conditions": "1.0E−6, average N=2, read-out: percentage inhibition of specific binding", "from_the_text": "as §1, §2"}, "[8]": {"biological_target": "Thyrotropin Releasing Hormone, TRH (Homo sapiens, UniProt P34981)", "experiment": "Table 12 panel: TRH", "conditions": "1.0E−6, average N=2, read-out: percentage inhibition of specific binding", "from_the_text": "as §1, §2"}, "Vasopressin 1": {"biological_target": "Vasopressin 1 (Homo sapiens, UniProt P37288)", "experiment": "Table 12 panel: Vasopressin 1", "conditions": "1.0E−6, average N=2, read-out: percentage inhibition of specific binding", "from_the_text": "as §1, §2"}, "GABA-B": {"biological_target": "GABA-B (Homo sapiens, UniProt Q9UBS5)", "sequence (Q9UBS5 15-961 limits assumed)": "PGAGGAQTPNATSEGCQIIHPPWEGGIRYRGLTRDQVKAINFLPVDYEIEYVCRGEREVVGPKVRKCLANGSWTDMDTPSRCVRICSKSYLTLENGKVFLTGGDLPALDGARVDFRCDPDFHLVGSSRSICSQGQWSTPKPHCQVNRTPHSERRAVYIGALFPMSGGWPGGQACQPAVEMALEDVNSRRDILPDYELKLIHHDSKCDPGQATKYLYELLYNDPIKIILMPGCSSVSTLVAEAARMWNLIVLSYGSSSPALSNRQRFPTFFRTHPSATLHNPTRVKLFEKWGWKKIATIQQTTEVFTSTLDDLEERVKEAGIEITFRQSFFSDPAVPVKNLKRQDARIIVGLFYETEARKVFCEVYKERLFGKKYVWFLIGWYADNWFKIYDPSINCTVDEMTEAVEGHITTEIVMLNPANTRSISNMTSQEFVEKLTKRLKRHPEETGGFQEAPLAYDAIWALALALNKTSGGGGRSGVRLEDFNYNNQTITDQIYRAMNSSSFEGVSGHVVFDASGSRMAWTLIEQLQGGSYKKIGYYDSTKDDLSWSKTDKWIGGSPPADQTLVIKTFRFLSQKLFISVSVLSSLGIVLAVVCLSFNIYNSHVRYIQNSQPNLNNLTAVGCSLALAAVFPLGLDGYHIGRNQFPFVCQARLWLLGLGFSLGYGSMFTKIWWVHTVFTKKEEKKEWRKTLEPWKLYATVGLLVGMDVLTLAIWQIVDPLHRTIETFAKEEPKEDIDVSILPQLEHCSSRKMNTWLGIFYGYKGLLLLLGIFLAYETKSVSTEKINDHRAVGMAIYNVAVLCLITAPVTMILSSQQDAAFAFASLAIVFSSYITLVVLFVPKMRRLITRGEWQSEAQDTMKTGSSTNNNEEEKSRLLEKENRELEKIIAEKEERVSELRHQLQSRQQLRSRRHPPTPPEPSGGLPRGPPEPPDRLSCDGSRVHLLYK", "sequence (O75899 42-941 partner)": "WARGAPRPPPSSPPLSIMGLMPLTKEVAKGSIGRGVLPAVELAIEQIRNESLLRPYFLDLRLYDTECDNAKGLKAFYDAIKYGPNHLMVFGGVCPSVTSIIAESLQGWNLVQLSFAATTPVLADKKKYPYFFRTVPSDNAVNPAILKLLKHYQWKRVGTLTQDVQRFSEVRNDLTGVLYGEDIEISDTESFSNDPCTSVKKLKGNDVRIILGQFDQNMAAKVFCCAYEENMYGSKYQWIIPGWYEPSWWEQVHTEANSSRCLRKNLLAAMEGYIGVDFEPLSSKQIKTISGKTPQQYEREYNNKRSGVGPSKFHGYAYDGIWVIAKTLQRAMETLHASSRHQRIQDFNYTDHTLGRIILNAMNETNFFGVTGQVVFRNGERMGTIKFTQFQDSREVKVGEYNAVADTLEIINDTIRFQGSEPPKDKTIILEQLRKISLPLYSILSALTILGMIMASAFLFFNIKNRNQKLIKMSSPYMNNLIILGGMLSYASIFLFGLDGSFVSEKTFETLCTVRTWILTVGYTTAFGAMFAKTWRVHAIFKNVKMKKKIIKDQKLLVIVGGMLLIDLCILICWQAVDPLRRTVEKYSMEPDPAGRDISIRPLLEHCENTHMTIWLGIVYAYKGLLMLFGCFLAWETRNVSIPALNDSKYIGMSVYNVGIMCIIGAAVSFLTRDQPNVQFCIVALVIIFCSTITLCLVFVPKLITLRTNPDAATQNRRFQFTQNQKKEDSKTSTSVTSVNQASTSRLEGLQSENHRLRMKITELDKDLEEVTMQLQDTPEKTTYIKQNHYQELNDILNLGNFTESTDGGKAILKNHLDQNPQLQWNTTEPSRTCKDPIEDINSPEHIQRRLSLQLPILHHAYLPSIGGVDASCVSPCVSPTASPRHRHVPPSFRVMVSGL", "experiment": "Table 12 panel: GABA-B", "conditions": "1.0E−6, average N=2, read-out: percentage inhibition of specific binding", "from_the_text": "as §1, §2"}, "[9]": {"tested_on": "Calcium Channel, Type L (Dihydropyridine Site)", "experiment": "Table 12 panel: Calcium Channel, Type L", "type": "binding", "conditions": "1.0E−6, average N=2", "from_the_text": "as §1, §2"}, "CYP 2C19": {"biological_target": "T1, CYP 2C19 (Homo sapiens, UniProt P33261)", "T1 construct": "in a commercially available human microsomal preparation; purchased; host or cells: human microsomal preparation", "experiment": "Cytochrome P450 inhibition: CYP 2C19", "type": "in vitro ADME", "conditions": "human microsomal preparation", "procedure": "(§3) Cytochrome P450 inhibition was studied with HY2901 in vitro. […] In addition, the in vitro rate of metabolism in rat, dog, monkey, and human hepatocyte cultures was determined for HY2901."}, "hERG": {"biological_target": "hERG (Homo sapiens, UniProt Q12809)", "sequence (Q12809 whole entry)": "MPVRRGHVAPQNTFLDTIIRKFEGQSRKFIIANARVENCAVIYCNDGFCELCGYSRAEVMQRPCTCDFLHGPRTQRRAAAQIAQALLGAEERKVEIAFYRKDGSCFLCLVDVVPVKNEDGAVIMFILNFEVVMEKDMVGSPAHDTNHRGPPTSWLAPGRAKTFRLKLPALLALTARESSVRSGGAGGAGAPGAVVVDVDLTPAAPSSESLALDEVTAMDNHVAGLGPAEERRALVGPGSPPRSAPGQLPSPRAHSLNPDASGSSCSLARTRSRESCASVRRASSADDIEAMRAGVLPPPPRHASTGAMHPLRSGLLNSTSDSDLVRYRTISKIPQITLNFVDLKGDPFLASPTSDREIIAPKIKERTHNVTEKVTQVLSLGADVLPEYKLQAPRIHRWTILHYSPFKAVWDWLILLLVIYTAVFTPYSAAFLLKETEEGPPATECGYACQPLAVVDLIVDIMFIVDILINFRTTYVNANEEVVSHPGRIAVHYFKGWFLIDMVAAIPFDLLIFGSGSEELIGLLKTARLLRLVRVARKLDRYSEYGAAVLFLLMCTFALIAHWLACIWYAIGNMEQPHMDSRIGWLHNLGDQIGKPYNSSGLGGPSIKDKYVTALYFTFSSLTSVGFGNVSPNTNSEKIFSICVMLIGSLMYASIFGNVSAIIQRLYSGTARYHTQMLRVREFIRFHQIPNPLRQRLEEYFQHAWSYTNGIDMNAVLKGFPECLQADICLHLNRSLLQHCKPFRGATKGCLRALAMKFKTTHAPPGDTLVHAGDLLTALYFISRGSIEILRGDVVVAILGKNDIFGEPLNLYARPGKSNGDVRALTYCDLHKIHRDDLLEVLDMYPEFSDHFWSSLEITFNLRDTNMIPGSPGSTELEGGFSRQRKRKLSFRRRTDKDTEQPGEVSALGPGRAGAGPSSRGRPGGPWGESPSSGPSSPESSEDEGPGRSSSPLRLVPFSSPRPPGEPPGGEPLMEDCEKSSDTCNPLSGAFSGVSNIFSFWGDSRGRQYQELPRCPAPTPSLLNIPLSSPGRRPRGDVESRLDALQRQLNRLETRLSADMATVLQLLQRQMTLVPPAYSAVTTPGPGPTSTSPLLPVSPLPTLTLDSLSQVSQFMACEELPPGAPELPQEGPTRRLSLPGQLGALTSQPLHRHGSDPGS", "experiment": "in vitro", "conditions": "pH 7.4"}, "[10]": {"experiment": "Plasma pharmacokinetics in cynomolgus monkeys", "type": "in vivo", "conditions": "cynomolgus monkey, 3 mg/kg", "from_the_text": "(§4) The following pharmacokinetic parameters are computed from the individual plasma concentrations of the modified antihistamine compound using a noncompartmental approach and appropriate validated pharmacokinetic software (e.g., WinNonlin Professional). Concentration values reported as BLQ are set to zero. If concentration data are available, interim calculations are done (non-QC.d data) between periods if possible.\nDose proportionality following study medication is explored by analyzing natural log-transformed pharmacokinetic variables AUC(0-t), AUC(0-inf), and Cmax with a linear model including the natural log-transformed dose as covariates. […] The following parameters were estimated: • Cmax Maximum plasma concentration. • Tmax Time to maximum concentration. • Cmax and Tmax were reported directly from the concentration-time data. • AUC0-T Area under the plasma concentration-time curve from time […] to the last time point with measurable concentrations, estimated bylinear trapezoidal rule. • AUC0-00 Area under the plasma concentration-time curve extrapolated to infinity, calculated using the formula: AUC0-00=AUC0-1+C0/λ0 • Where Ct is the last measurable concentration in plasma and λz is the terminal phase elimination rate constant estimated using log-linear regression during the terminal elimination phase. […]"}, "[11]": {"experiment": "Brain levels of parent drug after oral administration", "conditions": "rat, 3 mg/kg"}, "CYP 3A": {"tested_on": "CYP 3A", "experiment": "Cytochrome P450 inhibition: CYP 3A", "type": "in vitro ADME", "conditions": "human microsomal preparation", "procedure": "as §3"}, "CYP 1A2": {"biological_target": "T2, CYP 1A2 (Homo sapiens, UniProt P05177)", "T2 construct": "in a commercially available human microsomal preparation; purchased; host or cells: human microsomal preparation", "experiment": "Cytochrome P450 inhibition, human microsomal preparation: CYP 1A2", "type": "in vitro ADME", "procedure": "as §3"}, "[12]": {"experiment": "Plasma pharmacokinetics in rats", "type": "in vivo, rat", "from_the_text": "as §4\nDose proportionality following study medication is explored by analyzing natural log-transformed pharmacokinetic variables AUC(0-t), AUC(0-inf), and Cmax with a linear model including the natural log-transformed dose as covariates. Dose proportionality is concluded if the 95% confidence interval for the slope of the covariate includes the value of 1. Dose linearity for AUC(0-t), AUC(0-inf), and Cmax is also explored by a linear model. See, e.g., Gibaldi and Perrier, Pharmacokinetics, Second Ed., Marcel Dekker: New York, N.Y. (1982). Nominal sample collection times were used in calculations, except where actual sampling times fell outside the protocol-specified acceptable time ranges. The following parameters were estimated: • Cmax Maximum plasma concentration. • Tmax Time to maximum concentration. • Cmax and Tmax were reported directly from the concentration-time data. • AUC0-T Area under the plasma concentration-time curve from time […] to the last time point with measurable concentrations, estimated bylinear trapezoidal rule. • AUC0-00 Area under the plasma concentration-time curve extrapolated to infinity, calculated using the formula: AUC0-00=AUC0-1+C0/λ0 • Where Ct is the last measurable concentration in plasma and λz is the terminal phase elimination rate constant estimated using log-linear regression during the terminal elimination phase. The number of points used in λz calculation was determined by visual inspection of the data describing the terminal phase. At lest the last three time points with measurable values were used in λz calculation. […]"}}}
{"smiles": "CC(CC(=O)O)N1CCC(=C2c3ccc(F)cc3COc3ccccc32)CC1", "note": "(centres unmarked) [Compound 37]", "values": [{"measurement": "inhibition at 1 µM", "setting": "[1]", "value": -7.13, "unit": "%"}, {"measurement": "inhibition at 1 µM", "setting": "Angiotensin II, AT1 (h)", "value": 12, "unit": "%"}, {"measurement": "inhibition at 1 µM", "setting": "[2]", "value": -12.5, "unit": "%"}, {"measurement": "inhibition at 1 µM", "setting": "[3]", "value": -4.17, "unit": "%"}, {"measurement": "percentage inhibition", "setting": "[4]", "value": 6.51, "unit": "%"}, {"measurement": "inhibition at 1 µM", "setting": "Thromboxane A2 (h)", "value": 6.55, "unit": "%"}, {"measurement": "inhibition at 1 µM", "setting": "Histamine, H2", "value": 0.8, "unit": "%"}, {"measurement": "percentage inhibition of specific binding", "setting": "Dopamine, Non-selective", "value": 21.10, "unit": "%"}, {"measurement": "inhibition at 1 µM", "setting": "[5]", "value": 19.5, "unit": "%"}, {"measurement": "percentage inhibition of specific binding", "setting": "[6]", "value": 6.97, "unit": "%"}, {"measurement": "percentage inhibition of specific binding", "setting": "Estrogen", "value": "−4.68", "unit": "%"}, {"measurement": "percentage inhibition", "setting": "[7]", "value": "−4.76", "unit": "%"}, {"measurement": "percentage inhibition of specific binding", "setting": "Sodium, Site 2", "value": "−4.12", "unit": "%"}, {"measurement": "percentage inhibition of specific binding", "setting": "Galanin, Non-Selective", "value": "−5.07", "unit": "%"}, {"measurement": "inhibition at 1 µM", "setting": "Endothelin, ET-B (h)", "value": -6.51, "unit": "%"}, {"measurement": "inhibition at 1 µM", "setting": "Bradykinin, BK2", "value": -3.04, "unit": "%"}, {"measurement": "inhibition at 1 µM", "setting": "Oxytocin", "value": -5.82, "unit": "%"}, {"measurement": "inhibition at 1 µM", "setting": "[8]", "value": -2.98, "unit": "%"}, {"measurement": "inhibition at 1 µM", "setting": "Vasopressin 1", "value": 11.6, "unit": "%"}, {"measurement": "inhibition at 1 µM", "setting": "GABA-B", "value": 2.17, "unit": "%"}, {"measurement": "percentage inhibition of specific binding", "setting": "[9]", "value": 5.82, "unit": "%"}]}
{"smiles": "CC(C)(CN1CCC(=C2c3ccc(F)cc3COc3ccccc32)CC1)C(=O)O", "note": "[Compound 49a]", "values": [{"measurement": "inhibition of CYP 2C19 activity", "setting": "CYP 2C19", "value": "did not inhibit"}, {"measurement": "IC50", "setting": "hERG", "value": 93, "unit": "µM"}, {"measurement": "inhibition at 0.01 µM", "setting": "hERG", "value": 10, "unit": "%"}, {"measurement": "half-life", "setting": "[10]", "value": 4.4, "unit": "h"}, {"measurement": "Tmax", "setting": "[10]; after oral administration", "value": 1.5, "unit": "h"}, {"measurement": "Kp", "setting": "[11]", "value": 1}, {"measurement": "inhibition of CYP 3A activity", "setting": "CYP 3A", "value": "did not inhibit"}, {"measurement": "inhibition of CYP 1A2 activity", "setting": "CYP 1A2", "value": "did not inhibit"}, {"measurement": "half-life", "setting": "[12]; plasma, rat, 3 mg/kg", "value": 1.1, "unit": "h"}, {"measurement": "Tmax", "setting": "[12]; plasma, rat, 3 mg/kg, after oral administration", "value": 0.25, "unit": "h"}, {"measurement": "Peak plasma levels", "setting": "[12]; rats, most efficacious dose of 3 mg/kg in the sleep assay", "value": "less than 1.5 mM"}]}
